Laboratory results published in paper PMC9145754, “Novel Soloxolone Amides as Potent Anti-Glioblastoma Candidates: Design, Synthesis, In Silico Analysis and Biological Activities In Vitro and In Vivo” (Pharmaceuticals, 2022).

Tests used:
B16 cells = assay: MTT cytotoxicity assay, B16; type: cell-based, murine; details: Mus musculus, 24 h, read-out: IC50, Melanoma, B16
Description: (§1) In the first step of the study, we analyzed the cytotoxicity of novel soloxolone derivatives 1–12 in a panel of tumor cells, including human cervical carcinoma HeLa, human duodenal carcinoma HuTu-80 and murine melanoma B16 cells, as well as human non-transformed hFF3 foreskin fibroblasts. The cells were treated with derivatives for 24 h and cell viability was evaluated by 3-(4,5-dimethylthiazol-2-yl)-2,5-diphenyltetrazolium bromide (MTT) assay. SM was used as the reference compound.
(§2) The cells in the exponential growth phase were seeded in quadruplicate in 96-well plates at a density of 1 × 10^4 cells/well for HeLa, U87, U118, KELLY and Neuro2a cells; 1.5 × 10^4 cells/well for HuTu-80 cells; 2 × 10^4 cells/well for B16 cells; and 7 × 10^3 cells/well for hFF3 fibroblasts. Cells were incubated under standard conditions overnight followed by their treatment with the investigated compounds (1–20 µM) for 24 h. Then, 10 µL of MTT solution was added to the cells to a final concentration of 0.5 mg/mL and plates were placed under standard conditions for 3 h followed by an aspiration of MTT-containing medium and a dissolution of formazan crystals with 100 µL of DMSO. The absorbance of each well was read at test and reference wavelengths of 570 and 620 nm, respectively, on a Multiscan RC plate reader (Thermo LabSystems, Helsinki, Finland).

U118 cells [1] = assay: Trans-well motility (CIM-Plate, xCELLigence); type: cell-based, human; details: U118, 12 at 100 nM, starting after 20 h
Description: To evaluate the ability of tryptamide 12 to suppress the migration potential of glioblastoma cells, two independent approaches were undertaken, including assessment of cell movement on a 2D surface (scratch assay) and through a trans-well membrane (CIM-Plate).
To assess the trans-well motility of glioblastoma cells, U118 cells were seeded in quadruplicate at 2 × 10^4 cells/well in the upper chamber of a CIM-Plate in FBS-free DMEM in the presence or absence of 12 at 100 nM. To induce trans-well motility of the cells, DMEM containing 10% FBS was placed in the lower chamber of the CIM-Plate. After that, the electrical impedance of the sensor electrodes mounted at the lower side of the porous membrane separating the upper and lower chambers of the CIM-plate was further measured using an xCELLigence RTCA DP instrument (ACEA Biosciences Inc., San Diego, CA, USA) every 1 h for 48 h.

HuTu-80 cells = assay: MTT cytotoxicity assay, HuTu-80; type: cell-based; details: Homo sapiens, HuTu80, 24 h, read-out: IC50, Duodenum, HuTu-80
Description: as §1, §2

U87 cells = assay: MTT cytotoxicity assay, U87; type: cell-based; details: Homo sapiens, U-87 MG, 24 h, read-out: IC50, Glioblastoma, U87
Description: To evaluate the antitumor activity of the synthesized soloxolone amides in brain tumor cells, the cytotoxicity of compounds 4–12, predicted as BBB-permeable (Figure 3), was further analyzed in human glioblastoma U87 and U118 cells, as well as human neuroblastoma KELLY and murine neuroblastoma Neuro2a cells.
as §2

glioblastoma cells = assay: Cell survival at non-toxic concentrations; type: cell-based; details: 12 at 25–500 nM (non-toxic concentrations)
Description: To evaluate the antitumor potential of 12 more comprehensively, its effects at non-toxic concentrations (25–500 nM; cell survival of ≥90%) on a range of metastatic-related processes in glioblastoma cells were studied. Firstly, we investigated the inhibitory activity of 12 on the clonogenic capacity of tumor cells in vitro, which reflects their ability to form colonies from single cells which characterizes the stemness of tumor cells and plays a crucial role in metastasis.

U118 cells [2] = assay: Autophagy, MDC staining, U118; type: cell-based, human; details: 24 h
Description: Given that pentacyclic triterpenoids can induce tumor cell death not only by the apoptotic pathway but also by triggering autophagy, we next studied whether 12 stimulated autophagy in glioblastoma cells. For this, U87 and U118 cells were incubated with tryptamide 12 at toxic concentrations (2 or 4 µM) for 24 h followed by cell staining with monodansylcadaverine (MDC), a fluorescent dye specifically labeling autophagosomes. […] Considering that autophagy can be associated not only with cell death but also with cytoprotection, its role in the cytotoxicity of 12 in glioblastoma cells was further studied.
To evaluate the ability of 12 to induce autophagy, U87 and U118 cells were seeded at 2.8 × 10^5 cells/well in 6-well plates and incubated under standard conditions overnight followed by their treatment with 12 in amounts of 2 and 4 μM for 24 h. Then, the cells were collected and washed with PBS as described above and resuspended in 500 µL of PBS containing monodancylcadaverine (MDC) at 50 μM. After incubation for 15 min under standard conditions, the cells were washed with PBS and analyzed by flow cytometry. For each sample, 10,000 events were acquired.

[3] = system: hFF3 foreskin fibroblasts; assay: MTT cytotoxicity assay, hFF3 fibroblasts; type: cell-based, human; details: Homo sapiens, HFF-3, 24 h
Description: as §1, §2

[4] = Toxicity assessment (body weight, organ indexes); type: in vivo, Balb/C nude mice
Description: (seven injections were performed in total) and brain tissue was collected 48 h after the last injection of 12 followed by a high-performance liquid chromatography–tandem mass spectrometry (HPLC–MS/MS) analysis of the obtained samples (Figure 3D). This treatment regimen was chosen due to its common usage in the evaluation of antitumor activity of various low-molecular weight compounds in xenograft murine models. […] Before the HPLC–MS/MS analysis, chromatographic conditions and mass spectrometer parameters for detecting both semisynthetic triterpenoid 12 and the internal standard in the multiple reaction monitoring (MRM) mode were optimized. The optimized parameters are given in Supplementary Table S1.
During the experiment, the general status of the animals and body weight was monitored. At the end of the experiment, organs were collected and organ indexes were calculated as (organ weight/body weight) × 100%.

**Q.** Which IC50 (B16 cells) does the source give for `CC1(C)C(=O)C(C#N)=C[C@]2(C)C3=CC(=O)[C@@H]4[C@@H]5C[C@@](C)(C(=O)NCCc6c[nH]c7ccccc67)CC[C@]5(C)CC[C@@]4(C)[C@]3(C)CC[C@@H]12` [compound 12] here?
**A.** 1.5 ± 0.2 µM

**Q.** What about the “ability of cells to cross the porous membrane of the CIM-Plate” value (U118 cells [1]) of the same molecule?
**A.** significantly suppressed

**Q.** And the IC50 (HuTu-80 cells)?
**A.** 1.5 ± 0.1 µM

**Q.** And the IC50 (U87 cells)?
**A.** 1.9 ± 0.1 µM

**Q.** And the cell survival (glioblastoma cells)?
**A.** ≥ 90%

**Q.** What about the “MDC-positive cells, U118” value (U118 cells [2]; 12 at 2 µM) of the same molecule?
**A.** 8.55%

**Q.** What about the “MDC-positive cells, U118” value (U118 cells [2]; 12 at 4 µM) of the same molecule?
**A.** 8.02%

**Q.** What about the IC50 [3] of the same molecule?
**A.** 1.4 ± 0.2 µM

**Q.** What about the “organ indexes in experimental and control groups” value ([4]; U87 glioblastoma-bearing mice, 20 mg/kg i.p.) of the same molecule?
**A.** did not reveal significant differences

**Q.** What about the “mouse body weight compared to untreated mice” value ([4]; nude mice, 50 mg/kg i.p., thrice a week for two weeks) of the same molecule?
**A.** did not reveal significant changes
